# Assay results from ChEMBL document CHEMBL4477215, “Specific Correction of Alternative Survival Motor Neuron 2 Splicing by Small Molecules: Discovery of a Potential Novel Medicine To Treat Spinal Muscular Atrophy” (J Med Chem, 2016).
# Calls of active or inactive are those of the source. The rule behind the calls is not given here.
# Experiments:
# [1] = AUC in plasma of wild type mouse at 1 mg/kg, ip measured on postnatal day 10; assay type: ADME, organism-based
# Mus musculus [2] = test: (§1) Inhibition of mRNA splicing of SMN2 exon 7 in neonatal delta7 mouse harboring FVB.Cg-Tg(SMN2 delta7)4299Ahmb Tg(SMN2)-89Ahmb Smn1tm1Msd/J assessed as increase in SMN protein level in quadriceps at 1 mg/kg, ip qd administered from postnatal day 3 to postnatal day 9 measured 1 hr after last dose by HTRF assay relative to control; assay type: functional; parameters: scale not given: the % may be the effect or the level left
# [3] = Volume of distribution at steady state in rat at 2 mg/kg, iv; assay type: ADME, organism-based; conditions: in vivo, read-out: Vdss
# Mus musculus [4] = test: as §1, with “in brain” for “in quadriceps”, “at 0.1” for “at 1”; assay type: functional; parameters: scale not given: the % may be the effect or the level left
# Mus musculus [5] = test: Increase in body weight of delta7 mouse harboring FVB.Cg-Tg(SMN2 delta7)4299Ahmb Tg(SMN2)89Ahmb Smn1tm1Msd/J at 0.03 to 0.1 mg/kg, ip qd administered from PND3 to PND23 followed by 0.03 to 0.1 mg/kg/day via oral gavage from PND24 to PND65; assay type: functional, organism-based
# Mus musculus [6] = test: Increase in survival of delta7 mouse harboring FVB.Cg-Tg(SMN2 delta7)4299Ahmb Tg(SMN2)89Ahmb Smn1tm1Msd/J at 0.03 to 0.1 mg/kg, ip qd administered from PND3 to PND23 followed by 0.03 to 0.1 mg/kg/day via oral gavage from PND24 to PND65; assay type: functional, organism-based
# Mus musculus [7] = test: as §1, with “at 0.1” for “at 1”; assay type: functional; parameters: scale not given: the % may be the effect or the level left
# [8] = Unbound AUC in plasma of wild type mouse at 1 mg/kg, ip measured on postnatal day 10; assay type: ADME, organism-based; conditions: in vivo
# Mus musculus [9] = test: Inhibition of mRNA splicing of human SMN2 exon 7 in transgenic SMA C/C-allele mouse brain assessed as increase in SMN protein level administered orally qd for 10 days; assay type: functional, organism-based
# Homo sapiens [10] = organism: Homo sapiens; test: Inhibition of mRNA splicing of SMN2 exon 7 in spinal motor neurons derived from human SMA type 1/2 patient induced pluripotent stem cells assessed as increase in SMN protein level at 0.01 to 1 uM by HTRF assay; parameters: scale not given: the % may be the effect or the level left
# Mus musculus [11] = test: as §1, with “in brain” for “in quadriceps”, “at 3” for “at 1”; assay type: functional; parameters: scale not given: the % may be the effect or the level left
# Mus musculus [12] = test: Increase in survival of delta7 mouse harboring FVB.Cg-Tg(SMN2 delta7)4299Ahmb Tg(SMN2)89Ahmb Smn1tm1Msd/J assessed as mouse survival beyond PND60 at 3 to 10 mg/kg, ip qd administered from PND3 to PND23 followed by 3 to 10 mg/kg/day via oral gavage from PND24 to PND65; assay type: functional
# [13] = Unbound AUC in plasma of wild type mouse at 3 mg/kg, ip measured on postnatal day 10; assay type: ADME, organism-based; conditions: in vivo
# Homo sapiens [14] = organism: Homo sapiens; test: Inhibition of mRNA splicing of SMN2 exon 7 in fibroblasts derived from human SMA type 1 patient assessed as increase in SMN protein level at 0.01 to 10 uM by HTRF assay
# Mus musculus [15] = test: Increase in survival of delta7 mouse harboring FVB.Cg-Tg(SMN2 delta7)4299Ahmb Tg(SMN2)89Ahmb Smn1tm1Msd/J assessed as mouse survival beyond PND50 at 1 to 3 mg/kg, ip qd administered from PND3 to PND23 followed by 1 to 3 mg/kg/day via oral gavage from PND24 to PND65; assay type: functional
# Mus musculus [16] = test: Increase in body weight of delta7 mouse harboring FVB.Cg-Tg(SMN2 delta7)4299Ahmb Tg(SMN2)89Ahmb Smn1tm1Msd/J assessed as mouse body weight beyond PND50 at 1 to 3 mg/kg, ip qd administered from PND3 to PND23 followed by 1 to 3 mg/kg/day via oral gavage from PND24 to PND65; assay type: functional, organism-based
# Mus musculus [17] = test: Inhibition of mRNA splicing of human SMN2 exon 7 in transgenic SMA C/C-allele mouse brain administered orally qd for 10 days; assay type: functional, organism-based
# Mus musculus [18] = test: Increase in survival of ip dosed delta7 mouse harboring FVB.Cg-Tg(SMN2 delta7)4299Ahmb Tg(SMN2)89Ahmb Smn1tm1Msd/J administered intraperitoneally once daily from PND3 to PND23 followed by oral gavage dosing qd from PND24 to PND65; assay type: functional, organism-based
# Mus musculus [19] = test: as §1, with “at 3” for “at 1”; assay type: functional; parameters: scale not given: the % may be the effect or the level left
# Mus musculus [20] = test: Increase in body weight of delta7 mouse harboring FVB.Cg-Tg(SMN2 delta7)4299Ahmb Tg(SMN2)89Ahmb Smn1tm1Msd/J assessed as mouse body weight beyond PND60 at 3 to 10 mg/kg, ip qd administered from PND3 to PND23 followed by 3 to 10 mg/kg/day via oral gavage from PND24 to PND65; assay type: functional, organism-based
# [21] = AUC in plasma of wild type mouse at 3 mg/kg, ip measured on postnatal day 10; assay type: ADME, organism-based
SMILES,Activity (Mus musculus [2]),Vd [3],Activity (Mus musculus [11]),Survival (Mus musculus [12]),fAUC [13],Survival (Mus musculus [15]),Activity (Mus musculus [16]),Activity (Mus musculus [18]),Activity (Mus musculus [19]),Activity (Mus musculus [20]),AUC [21],other results
Cc1cn2cc(-c3cc(=O)n4cc(N5CCN(C)CC5)ccc4n3)cc(F)c2n1,260%,5 L/kg,,,,,,,,,,AUC [1]: 4300 ng·h/mL; Activity (Mus musculus [4]): 72%; Activity (Mus musculus [5]): Active; Activity (Mus musculus [6]): Active; Activity (Mus musculus [7]): 107%; fAUC [8]: 721 ng·h/mL
CCc1nc(C)cn2nc(-c3cc(=O)n4cc(C5CCN(C)CC5)cc(C)c4n3)cc12,57%,20 L/kg,135%,80 - 90%,118 ng·h/mL,80 - 90%,Active,Dose-dependent effect,160%,Active,5900 ng·h/mL,inhibition (Mus musculus [9]): Dose-dependent effect; Activity (Homo sapiens [10]): 60 to 80%; inhibition (Homo sapiens [14]): Active; inhibition (Mus musculus [17]): Dose-dependent effect
Cc1cn2cc(-c3cc(=O)n4cc(N5CCN(C)CC5)ccc4n3)cc(C)c2n1,115%,14 L/kg,162%,80 - 90%,208 ng·h/mL,80 - 90%,Active,Dose-dependent effect,130%,Active,1300 ng·h/mL,
